Consider two compounds from patent US20100130519A1 (priority 2007, published 2010).

Structures are written as SMILES. Where two headings read alike, the source gives them in different places.

Experiment [1] has as its system Calu-6 human lung tumour xenografts. In words: Calu-6 Human Lung Cancer Xenograft Model. In kind it is in vivo. The note with it: athymic mice, p.o. 24 days. How it is done: Experiments were conducted in female athymic mice (Swiss nu/nu genotype, ≧6 weeks of age). Calu-6 human lung tumour xenografts were established in mice by injecting 1×10^6 cells ([…] containing 50% Matrigel®) subcutaneously in the dorsal flank. Tumour volumes were assessed using bilateral Vernier calliper measurement at least twice weekly and calculated using the formula (length×width)×√(length×width)×(π/6), where length was taken to be the longest diameter across the tumour and width the corresponding perpendicular. Mice were randomised into 4 treatment groups (10 mice/group) when the mean tumour volume reached approximately 0.2 cm^3. […] (0.5% w/v Methocel/0.1% w/v Tween 80).
Tumour growth inhibition from the start of treatment was assessed by comparison of the differences in tumour volume between control and treated groups.
On the technique in general: Xenograft models place foreign cells or tissue in a host animal.

The next experiment relates to HUVEC. Description: HUVEC assay, endothelial cell proliferation. In kind it is cell-based. The note with it: Homo sapiens.
The subject of the next experiment is Calu-6 tumour xenograft. In words: in vivo solid tumour model of WO 00/47212, Calu-6 tumour xenograft. Particulars: once-daily oral, 28 days.
Experiment [2] concerns the target c-Kit (stem cell factor receptor tyrosine kinase) (Homo sapiens, UniProt P10721). Description: c-Kit inhibition. In kind it is biochemical.

Sequence of c-Kit (stem cell factor receptor tyrosine kinase) (P10721 26-976): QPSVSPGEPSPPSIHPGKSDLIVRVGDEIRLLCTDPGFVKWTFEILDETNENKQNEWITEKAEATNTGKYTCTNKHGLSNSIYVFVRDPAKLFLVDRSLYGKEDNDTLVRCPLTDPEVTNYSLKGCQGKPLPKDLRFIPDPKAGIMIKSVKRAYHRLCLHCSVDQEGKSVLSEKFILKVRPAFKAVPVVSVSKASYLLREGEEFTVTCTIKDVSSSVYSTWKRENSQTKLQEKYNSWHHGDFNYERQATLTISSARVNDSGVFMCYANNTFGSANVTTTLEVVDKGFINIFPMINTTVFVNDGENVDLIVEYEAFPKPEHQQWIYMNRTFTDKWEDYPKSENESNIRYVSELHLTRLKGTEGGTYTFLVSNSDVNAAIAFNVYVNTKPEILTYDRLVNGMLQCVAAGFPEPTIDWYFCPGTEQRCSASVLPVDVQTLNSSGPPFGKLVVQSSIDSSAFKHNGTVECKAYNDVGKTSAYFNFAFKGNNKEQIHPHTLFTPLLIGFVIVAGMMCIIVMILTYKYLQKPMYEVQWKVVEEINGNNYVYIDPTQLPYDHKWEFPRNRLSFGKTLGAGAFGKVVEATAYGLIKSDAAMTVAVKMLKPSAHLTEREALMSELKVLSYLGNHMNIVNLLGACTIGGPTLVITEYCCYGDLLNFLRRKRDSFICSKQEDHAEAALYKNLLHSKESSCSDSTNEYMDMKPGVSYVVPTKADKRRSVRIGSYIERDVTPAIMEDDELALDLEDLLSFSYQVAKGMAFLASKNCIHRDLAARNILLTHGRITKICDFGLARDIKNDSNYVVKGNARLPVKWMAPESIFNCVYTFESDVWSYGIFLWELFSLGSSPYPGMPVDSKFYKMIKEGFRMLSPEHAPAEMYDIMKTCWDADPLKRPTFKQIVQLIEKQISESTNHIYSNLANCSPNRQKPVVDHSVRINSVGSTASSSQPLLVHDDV

In experiment [1] (AZD6244 3 mg/kg twice daily alone), `Cn1cnc2c(F)c(Nc3ccc(Br)cc3Cl)c(C(=O)NOCCO)cc21` [AZD6244, 6-(4-Bromo-2-chloro-phenylamino)-7-fluoro-3-methyl-3H-benzoimidazole-5-carboxylic acid (2-hydroxy-ethoxy)-amide] showed a tumour growth inhibition of 44%.

In the case of `COc1cc2c(Oc3ccc4[nH]c(C)cc4c3F)ncnc2cc1OCCCN1CCCC1` [AZD2171, 4-(4-fluoro-2-methyl-1H-indol-5-yloxy)-6-methoxy-7-(3-(pyrrolidin-1-yl)propoxy)quinazoline], the IC50 in the experiment on HUVEC (VEGF-stimulated, read-out: IC50, VEGF-stimulated endothelial cell proliferation) was 0.4 ± 0.2 nM; with HUVEC (basal (no VEGF stimulation), read-out: IC50, basal endothelial cell proliferation) it was more than 500 nM. For the same compound, the “inhibition of growth of Calu-6 tumour xenograft” value amounted to 49% in the experiment on Calu-6 tumour xenograft (1.5 mg/kg/day, P<0.01); 69% in the experiment on Calu-6 tumour xenograft (3 mg/kg/day, P<0.0001); 91% with Calu-6 tumour xenograft (6 mg/kg/day, P<0.0001). The “inhibition of c-Kit” value in experiment [2] is “inhibits”. Besides, the tumour growth inhibition in experiment [1] (AZD2171 1.5 mg/kg once daily alone) is given as 47%.
